Reference: patent US20230278958A1 (Merck Patent GmbH, priority 2020, published 2023)

Tests used:
[1] = test system: YAP-TEAD interaction; assay: SK-HEP-1 reporter assay (8x TEAD responsive elements driving NanoLuc luciferase); format: cell-based; conditions: Homo sapiens, SK-HEP1; SK-HEP-1 TEAD-NanoLuc reporter cells, 24 hour incubation, luciferase readout
Description: To identify inhibitors of YAP-TEAD interaction, 8× TEAD responsive elements driving the NanoLuc® luciferase gene were stably integrated into SK-HEP-1 cells (ECACC #: 91091816).
For the assay, cells were treated in duplicates with the test compounds in a 10-point dose, with the top concentration starting at 30 μM (final concentration in assay). After a 24 hour incubation at 37° C., 95% rH, and 5% CO2, a luciferase substrate/lysis reagent mix (NanoGlo™, Promega) was added to the cells, allowing the quantification of cellular luciferase activity.
Cell Media: The cells were cultured in the following media: MEM, +10% FBS, +1× GlutaMAX, +1 mM Sodium-Pyruvate, +100 μM Non-essential amino acids, +0.1 mg/ml Hygromycin. The media used for the assay was: MEM (w/o Phenol Red), +10% FBS, +1× GlutaMAX, +1 mM Sodium-Pyruvate, +100 μM Non-essential amino acids, +0.5% Pen/Strep
(§1) Reagents: The reagents used are listed below:
(§2) Cell culture: The cells were examined using an inverted microscope to check for health and cell density. To dissociate adherent cells, the monolayer of cells was washed once with pre-warmed PBS. After removing the PBS, 3 ml pre-warmed Accutase® was added to a F75 flask, dispersed evenly and the flask was allowed to sit in incubator for ˜4-5 minutes.
(§3) When a single cell suspension was obtained, 7 ml of prewarmed growth media was added and resuspended with the cells. The cell suspension was transferred to a sterile 15 ml conical centrifuge tube, and spun for 5 min at 300×g, RT. The supernatant was discarded and the pellet was resuspended in 10 ml of pre-warmed growth media.
(§4) The total cell count was determined, and 20 μl of the desired cell number was added to each well of a 384 well plate using a Multidrop Combi. The plates were then incubated for 24 hours at 37° C., 95% rH, and 5% CO2.
(§5) Compound treatment: 24 hours after seeding, the cells were treated with compounds.
(§6) A 1:333 dilution of compounds, diluted in DMSO, was made to get a final concentration of 0.3% DMSO per well. To transfer the compounds to the assay plate, 120 nl was shot from Labcyte low dead volume plates to the cell plates containing 20 μl media/well with the ECHO 555 liquid handling system.
(§7) After treatment, the cells were fed with 20 μl fresh pre-warmed assay media using a Multidrop combi.
The assay plates were then incubated for another 24 h at 37° C., 95% rH, and 5% CO2.
Luciferase readout: 24 h after treatment, the plates were taken out of the incubator and were allowed to equilibrate to RT. 30 μl of NanoGlo® reagent was added to the plates in the dark. Plates were shaken for 20 min on a Teleshake (˜1500 rpm) in the dark. The luminescence was then measured using an EnVision microplate reader. The IC50 values were generated using Genedata Screener®.
Experimental data in SK-HEP-1 reporter assay of the compounds shown in Table 1 are shown in Table 2 below and classified in the following groups: […]

[2] = test system: SW620 Yap KO cells; assay: Viability assay in SW620 Yap KO (Yap independent) cells, CyQUANT; format: cell-based; conditions: Homo sapiens, SW-620, SW620 YAP/TAZ knock-out (YAP independent) cells, 96 hour incubation
Description: (§8) The ability of YAP-TEAD inhibitors to inhibit tumor cell growth was evaluated using two different cell lines: NCI-H226, which is a YAP dependent cell line, and SW620 cells, where YAP and TAZ were knocked out using CRISPR to generate a YAP independent cell line.
(§9) For the assay, cells were treated in duplicates with the test compounds in a 10-point dose, 1:3 dilution steps, with the top concentration starting at 30 μM (final concentration in assay). After a 96 hour incubation at 37° C., 95% rH, and 5% CO2, a cell-permeant DNA-binding dye that stains only healthy cells (CyQUANT®, Promega) was added to the cells, allowing the quantification of cell viability.
(§10) Cell Media: The NCI-H226 cells were cultured in the following media: RPMI 1640, +10% FBS, +1× GlutaMAX, +10 mM HEPES, +0.5% Pen/Strep. The SW620-KO cells were cultured in the following media: DMEM/F-12, +10% FBS, +1× GlutaMAX, +10 mM HEPES, +0.5% Pen/Strep.
as §1
as §2, with “health,” for “health and”, “density, etc.” for “density.”, “Accutase” for “Accutase®”
as §3, §4, §5, §6, §7
(§11) The assay plates were then incubated for 96 h at 37° C., 95% rH, and 5% CO2.
(§12) 96h after treatment 30 μl of CyQuant® reagent was added to the assay plates using a Multidrop combi in the dark. The plates were then incubated for 1 hour at 37° C., 95% rH and 5% CO2. Thereafter, the assay plates were removed from the incubator and allowed to equilibrate to RT for 30 min in the dark without lid. Finally, they were measured using an EnVision microplate reader with a FITC bottom read program.
(§13) Experimental data in the Viability assay of the compounds shown in Table 1 are shown in Table 3 below and classified in the following groups: […]

[3] = test system: NCI-H226 cells; assay: Viability assay in NCI-H226 (Yap-dependent) cells, CyQUANT; format: cell-based; conditions: Homo sapiens, 96 hour incubation
Description: as §8, §9, §10, §1
as §2, with “health,” for “health and”, “density, etc.” for “density.”, “Accutase” for “Accutase®”
as §3, §4, §5, §6, §7, §11, §12, §13

SMILES | IC50 [1] [µM] | IC50 [2] [µM] | IC50 [3] [µM] | melting point [°C]
Cc1cccc2c1c1cc(C(=O)O)ccc1n2-c1ccc(C(F)(F)F)cc1 [Compound 6, 5-methyl-9-[4-(trifluoromethyl)phenyl]-9H-carbazole-3-carboxylic acid] | 0.001 to 0.01 | > 10 | 0.001 to 0.1 | –
CNC(=O)c1ccc2c(c1)c1cc(C#N)ccc1n2-c1ccc(C(F)(F)F)cc1 [Compound 33, 6-cyano-N-methyl-9-[4-(trifluoromethyl)phenyl]-9H-carbazole-3-carboxamide] | 0.01 to 0.1 | – | 0.001 to 0.1 | 270 to 272
Cc1ccc2c3cc(C(=O)O)ccc3n(-c3ccc(C(F)(F)F)cc3)c2c1 [Compound 20, 7-methyl-9-[4-(trifluoromethyl)phenyl]-9H-carbazole-3-carboxylic acid] | 0.01 to 0.1 | – | 1 to 10 | 250 to 252
Cc1ccc2c(c1)c1cc(C(=O)O)ccc1n2-c1ccc(C(F)(F)F)cc1 [Compound 10, 6-methyl-9-[4-(trifluoromethyl)phenyl]-9H-carbazole-3-carboxylic acid] | 0.001 to 0.01 | > 10 | 0.001 to 0.1 | –
Cc1ccc2c(n1)c1cc(C(=O)O)ccc1n2-c1ccc(C(F)(F)F)cc1 [Compound 17, 2-methyl-5-[4-(trifluoromethyl)phenyl]-5H-pyrido[3,2-b]indole-8-carboxylic acid] | 0.001 to 0.01 | – | 0.001 to 0.1 | 300
CC(C)c1ccc2c(c1)c1cc(C(=O)O)ccc1n2-c1ccc(C(F)(F)F)cc1 [Compound 13, 6-(propan-2-yl)-9-[4-(trifluoromethyl)phenyl]-9H-carbazole-3-carboxylic acid] | 0.01 to 0.1 | – | 0.1 to 1 | 271 to 272
CNC(=O)c1ccc2c(c1)c1nc(C(F)(F)F)ccc1n2-c1ccc(C(F)(F)F)cc1 [Compound 29, N-methyl-2-(trifluoromethyl)-5-[4-(trifluoromethyl)phenyl]-5H-pyrido[3,2-b]indole-8-carboxamide] | 0.1 to 1 | – | > 10 | 225 to 227
CNC(=O)c1ccc2c(c1)c1cc(C)ccc1n2-c1ccc(C(F)(F)F)cc1 [Compound 21, N,6-dimethyl-9-[4-(trifluoromethyl)phenyl]-9H-carbazole-3-carboxamide] | 0.001 to 0.01 | 1 to 10 | 0.001 to 0.1 | 184 to 186
CNC(=O)c1ccc2c(c1)c1cc(C(F)(F)F)ccc1n2-c1ccc(C(F)(F)F)cc1 [Compound 30, N-methyl-6-(trifluoromethyl)-9-[4-(trifluoromethyl)phenyl]-9H-carbazole-3-carboxamide] | 0.01 to 0.1 | – | 1 to 10 | 242 to 244
O=C(O)c1ccc2c(c1)c1ccccc1n2-c1ccc(C(F)(F)F)cc1 [Compound 8, 9-[4-(trifluoromethyl)phenyl]-9H-carbazole-3-carboxylic acid] | 0.01 to 0.1 | > 10 | 0.1 to 1 | –
O=C(O)c1ccc2c(c1)c1nc(C(F)(F)F)ccc1n2-c1ccc(C(F)(F)F)cc1 [Compound 16, 2-(trifluoromethyl)-5-[4-(trifluoromethyl)phenyl]-5H-pyrido[3,2-b]indole-8-carboxylic acid] | 0.01 to 0.1 | – | 0.001 to 0.1 | 160 to 162
O=C(O)c1cc2c3cccnc3n(Cc3ccc(C(F)(F)F)cc3)c2cn1 [Compound 34, 8-{[4-(trifluoromethyl)phenyl]methyl}-5,8,10-triazatricyclo[7.4.0.0^2,^7]trideca-1(9),2,4,6,10,12-hexaene-4-carboxylic acid] | 0.1 to 1 | – | – | 195 to 200
O=C(O)c1ccc2c(c1)c1cc(C(F)(F)F)ccc1n2-c1ccc(C(F)(F)F)cc1 [Compound 14, 6-(trifluoromethyl)-9-[4-(trifluoromethyl)phenyl]-9H-carbazole-3-carboxylic acid] | 0.001 to 0.01 | – | 0.1 to 1 | 292 to 294
CNC(=O)c1ccc2c(c1)c1ccc(C)cc1n2-c1ccc(C(F)(F)F)cc1 [Compound 26, N,7-dimethyl-9-[4-(trifluoromethyl)phenyl]-9H-carbazole-3-carboxamide] | 0.01 to 0.1 | – | 0.1 to 1 | 230 to 232
COc1ccc2c(n1)c1cc(C(=O)O)ccc1n2-c1ccc(C(F)(F)F)cc1 [Compound 19, 2-methoxy-5-[4-(trifluoromethyl)phenyl]-5H-pyrido[3,2-b]indole-8-carboxylic acid] | 0.001 to 0.01 | – | 0.1 to 1 | 245 to 247
O=C(O)c1ccc2c(c1)c1cc(Cc3ccccc3)ccc1n2-c1ccc(C(F)(F)F)cc1 [Compound 1, 6-benzyl-9-[4-(trifluoromethyl)phenyl]-9H-carbazole-3-carboxylic acid] | 0.1 to 1 | > 10 | 0.1 to 1 | –
CNC(=O)c1ccc2c(c1)c1cc(F)ccc1n2-c1ccc(C(F)(F)F)cc1 [Compound 23, 6-fluoro-N-methyl-9-[4-(trifluoromethyl)phenyl]-9H-carbazole-3-carboxamide] | 0.01 to 0.1 | – | 0.001 to 0.1 | 270 to 272
O=C(O)c1cc2c3cccnc3n(-c3ccc(C(F)(F)F)cc3)c2cn1 [Compound 35, 8-[4-(trifluoromethyl)phenyl]-5,8,10-triazatricyclo[7.4.0.0^2,^7]trideca-1(9),2,4,6,10,12-hexaene-4-carboxylic acid] | 0.01 to 0.1 | – | 0.1 to 1 | 185 to 188
O=C(O)c1ccc2c(c1)c1nc(F)ccc1n2-c1ccc(C(F)(F)F)cc1 [Compound 18, 2-fluoro-5-[4-(trifluoromethyl)phenyl]-5H-pyrido[3,2-b]indole-8-carboxylic acid] | 0.01 to 0.1 | – | 0.1 to 1 | 300
O=C(O)c1ccc2c(c1)c1cc(F)ccc1n2-c1ccc(C(F)(F)F)cc1 [Compound 11, 6-fluoro-9-[4-(trifluoromethyl)phenyl]-9H-carbazole-3-carboxylic acid] | 0.01 to 0.1 | – | 0.1 to 1 | 202 to 204
CNC(=O)c1ccc2c(c1)c1nc(F)ccc1n2-c1ccc(C(F)(F)F)cc1 [Compound 25, 2-fluoro-N-methyl-5-[4-(trifluoromethyl)phenyl]-5H-pyrido[3,2-b]indole-8-carboxamide] | 0.1 to 1 | – | – | 250 to 252
O=C(O)c1ccc2c(c1)c1cc(Cc3cccc(F)c3)ccc1n2-c1ccc(C(F)(F)F)cc1 [Compound 2, 6-[(3-fluorophenyl)methyl]-9-[4-(trifluoromethyl)phenyl]-9H-carbazole-3-carboxylic acid] | 0.1 to 1 | – | 0.1 to 1 | –
